Measured values reported in ChEMBL document CHEMBL5154747, “Discovery of new carbonic anhydrase IX inhibitors as anticancer agents by toning the hydrophobic and hydrophilic rims of the active site to encounter the dual-tail approach” (Eur J Med Chem, 2022).

Assays:
Type in all cases: functional
HCT-116 [1] = experiment: Anticancer activity against human HCT-116 cells assessed as cell growth inhibition incubated for 48 hrs by SRB assay
KM12 = experiment: Anticancer activity against human KM12 cells assessed as cell growth inhibition incubated for 48 hrs by SRB assay
SNB-75 = experiment: Anticancer activity against human SNB-75 cells assessed as cell growth inhibition at 10 uM incubated for 48 hrs by SRB assay relative to control; settings: read-out: GI
SR = experiment: Anticancer activity against human SR cells assessed as cell growth inhibition at 10 uM incubated for 48 hrs by SRB assay relative to control; settings: read-out: GI
A549 = experiment: Anticancer activity against human A549 cells assessed as cell growth inhibition incubated for 48 hrs by SRB assay
786-0 = experiment: Anticancer activity against human 786-0 cells assessed as cell growth inhibition at 10 uM incubated for 48 hrs by SRB assay relative to control; settings: read-out: GI
OVCAR-3 = experiment: Anticancer activity against human OVCAR-3 cells assessed as cell growth inhibition incubated for 48 hrs by SRB assay
HCT-116 [2] = experiment: Anticancer activity against human HCT-116 cells assessed as cell growth inhibition at 10 uM incubated for 48 hrs by SRB assay relative to control; settings: read-out: GI
OVCAR-4 [3] = experiment: Anticancer activity against human OVCAR-4 cells assessed as cell growth inhibition incubated for 48 hrs by SRB assay
SF-295 = experiment: Anticancer activity against human SF-295 cells assessed as cell growth inhibition incubated for 48 hrs by SRB assay; settings: read-out: LC50 (the source's name)
HL-60(TB) = experiment: Anticancer activity against human HL-60(TB) cells assessed as cell growth inhibition at 10 uM incubated for 48 hrs by SRB assay relative to control; settings: read-out: GI
MDA-MB-231 [4] = experiment: Anticancer activity against human MDA-MB-231 cells assessed as cell growth inhibition incubated for 48 hrs by SRB assay
UO-31 = experiment: Anticancer activity against human UO-31 cells assessed as cell growth inhibition incubated for 48 hrs by SRB assay
K562 = experiment: Anticancer activity against human K562 cells assessed as cell growth inhibition incubated for 48 hrs by SRB assay
HCT-15 [5] = experiment: Anticancer activity against human HCT-15 cells assessed as cell growth inhibition at 10 uM incubated for 48 hrs by SRB assay relative to control; settings: read-out: GI
SK-MEL-28 = experiment: Anticancer activity against human SK-MEL-28 cells assessed as cell growth inhibition at 10 uM incubated for 48 hrs by SRB assay relative to control; settings: read-out: GI
MOLT-4 [6] = experiment: Anticancer activity against human MOLT-4 cells assessed as cell growth inhibition incubated for 48 hrs by SRB assay
HCT-15 [7] = experiment: Anticancer activity against human HCT-15 cells assessed as cell growth inhibition incubated for 48 hrs by SRB assay
SNB-19 = experiment: Anticancer activity against human SNB-19 cells assessed as cell growth inhibition incubated for 48 hrs by SRB assay
NCI-H522 = experiment: Anticancer activity against human NCI-H522 cells assessed as cell growth inhibition incubated for 48 hrs by SRB assay
SF-539 = experiment: Anticancer activity against human SF-539 cells assessed as cell growth inhibition incubated for 48 hrs by SRB assay
IGROV-1 [8] = experiment: Anticancer activity against human IGROV-1 cells assessed as cell growth inhibition incubated for 48 hrs by SRB assay
Malme-3M = experiment: Anticancer activity against human Malme-3M cells assessed as cell growth inhibition incubated for 48 hrs by SRB assay
NCI/ADR-RES = experiment: Anticancer activity against human NCI/ADR-RES cells assessed as cell growth inhibition at 10 uM incubated for 48 hrs by SRB assay relative to control; settings: read-out: GI
ACHN = experiment: Anticancer activity against human ACHN cells assessed as cell growth inhibition at 10 uM incubated for 48 hrs by SRB assay relative to control; settings: read-out: GI
SF-268 = experiment: Anticancer activity against human SF-268 cells assessed as cell growth inhibition at 10 uM incubated for 48 hrs by SRB assay relative to control; settings: read-out: GI
OVCAR-4 [9] = experiment: Anticancer activity against human OVCAR-4 cells assessed as cell growth inhibition at 10 uM incubated for 48 hrs by SRB assay relative to control; settings: read-out: GI
BT-549 [10] = experiment: Anticancer activity against human BT-549 cells assessed as cell growth inhibition incubated for 48 hrs by SRB assay
RXF 393 [11] = experiment: Anticancer activity against human RXF 393 cells assessed as cell growth inhibition at 10 uM incubated for 48 hrs by SRB assay relative to control; settings: read-out: GI
MDA-MB-231 [12] = experiment: Anticancer activity against human MDA-MB-231 cells assessed as cell growth inhibition at 10 uM incubated for 48 hrs by SRB assay relative to control; settings: read-out: GI
RXF 393 [13] = experiment: Anticancer activity against human RXF 393 cells assessed as cell growth inhibition incubated for 48 hrs by SRB assay
MOLT-4 [14] = experiment: Anticancer activity against human MOLT-4 cells assessed as cell growth inhibition at 10 uM incubated for 48 hrs by SRB assay relative to control; settings: read-out: GI
IGROV-1 [15] = experiment: Anticancer activity against human IGROV-1 cells assessed as cell growth inhibition at 10 uM incubated for 48 hrs by SRB assay relative to control; settings: read-out: GI
HT-29 = experiment: Anticancer activity against human HT-29 cells assessed as cell growth inhibition incubated for 48 hrs by SRB assay
OVCAR-5 = experiment: Anticancer activity against human OVCAR-5 cells assessed as cell growth inhibition at 10 uM incubated for 48 hrs by SRB assay relative to control; settings: read-out: GI
LOX IMVI = experiment: Anticancer activity against human LOX IMVI cells assessed as cell growth inhibition at 10 uM incubated for 48 hrs by SRB assay relative to control; settings: read-out: GI
SN12C = experiment: Anticancer activity against human SN12C cells assessed as cell growth inhibition at 10 uM incubated for 48 hrs by SRB assay relative to control; settings: read-out: GI
TK-10 = experiment: Anticancer activity against human TK-10 cells assessed as cell growth inhibition at 10 uM incubated for 48 hrs by SRB assay relative to control; settings: read-out: GI
NCI-H23 = experiment: Anticancer activity against human NCI-H23 cells assessed as cell growth inhibition incubated for 48 hrs by SRB assay
BT-549 [16] = experiment: Anticancer activity against human BT-549 cells assessed as cell growth inhibition at 10 uM incubated for 48 hrs by SRB assay relative to control; settings: read-out: GI
[17] = read-out: LC50 (the source's name)

## Cc1nn(-c2ccccc2)cc1/C=N/Nc1nc(Nc2ccccc2)nc(Nc2ccc(S(N)(=O)=O)cc2)n1
HCT-116 [1]
  GI50: 2000 nM
  LC50 (concentration killing 50% of cells): > 100000 nM
KM12
  GI50: 2840 nM
KM12; [17]
  CC50: > 100000 nM
SNB-75
  inhibition of growth at 10 µM: 55%
SR
  inhibition of growth at 10 µM: 66%
A549
  GI50: 1850 nM
786-0
  inhibition of growth at 10 µM: 147%
OVCAR-3
  GI50: 3180 nM
  LC50 (concentration killing 50% of cells): > 100000 nM
HCT-116 [2]
  inhibition of growth at 10 µM: 59%
OVCAR-4 [3]
  GI50: 2550 nM
  LC50 (concentration killing 50% of cells): > 100000 nM
SF-295
  CC50: > 100000 nM
HL-60(TB)
  inhibition of growth at 10 µM: 96%
MDA-MB-231 [4]
  GI50: 3110 nM
  LC50 (concentration killing 50% of cells): > 100000 nM
UO-31
  GI50: 1720 nM
UO-31; [17]
  CC50: 7270 nM
K562
  GI50: 2630 nM
K562; [17]
  CC50: > 100000 nM
HCT-15 [5]
  inhibition of growth at 10 µM: 92%
SK-MEL-28
  inhibition of growth at 10 µM: 113%
MOLT-4 [6]
  GI50: 2290 nM
MOLT-4 [6]; [17]
  CC50: > 100000 nM
HCT-15 [7]
  GI50: 2670 nM
HCT-15 [7]; [17]
  CC50: > 100000 nM
SNB-19
  GI50: 3440 nM
SNB-19; [17]
  CC50: > 100000 nM
NCI-H522
  GI50: 2660 nM
NCI-H522; [17]
  CC50: > 100000 nM
SF-539
  GI50: 1710 nM
SF-539; [17]
  CC50: 6250 nM
IGROV-1 [8]
  GI50: 2590 nM
IGROV-1 [8]; [17]
  CC50: > 100000 nM
Malme-3M
  GI50: 1600 nM
Malme-3M; [17]
  CC50: 6130 nM
NCI/ADR-RES
  inhibition of growth at 10 µM: 23%
ACHN
  inhibition of growth at 10 µM: 100%
SF-268
  inhibition of growth at 10 µM: 107%
OVCAR-4 [9]
  inhibition of growth at 10 µM: 85%
BT-549 [10]
  GI50: 1840 nM
BT-549 [10]; [17]
  CC50: > 100000 nM
RXF 393 [11]
  inhibition of growth at 10 µM: 120%
MDA-MB-231 [12]
  inhibition of growth at 10 µM: 120%
RXF 393 [13]
  GI50: 1770 nM
RXF 393 [13]; [17]
  CC50: 6500 nM
MOLT-4 [14]
  inhibition of growth at 10 µM: 93%
IGROV-1 [15]
  inhibition of growth at 10 µM: 86%
HT-29
  GI50: 2880 nM
HT-29; [17]
  CC50: > 100000 nM
OVCAR-5
  inhibition of growth at 10 µM: 113%
LOX IMVI
  inhibition of growth at 10 µM: 125%
SN12C
  inhibition of growth at 10 µM: 100%
TK-10
  inhibition of growth at 10 µM: 55%
NCI-H23
  GI50: 1740 nM
NCI-H23; [17]
  CC50: 7500 nM
BT-549 [16]
  inhibition of growth at 10 µM: 78%
